Where two headings read alike, the source gives them in different places.
Tests used:
[1] = Coenzyme Q supplementation effect on serum vitamin C; assay type: in vivo
Source text: FIG. 1. Coenzyme Q supplementation effect on serum vitamin C (μg/ml). Subjects (N=12) were given coenzyme Q for 2 weeks with blood taken pre and post intervention. Values are means±SD.
Coenzyme Q has antioxidant properties. This molecule is found in the diet and is made by the body. Body production declines with age. Absorption of orally ingested coenzyme Q can be low, though certain forms work better than others.

[2] = system: plasma extracellular superoxide dismutase; conditions: rats fed the copper at adequate level for 6 weeks, unpaired t-test P<0.01
Source text: FIG. 4. Comparison of adequate copper intake as sulfate or glycinate for effects on plasma extracellular superoxide dismutase activities in rats. Rats were fed the copper for 6 weeks. […] Values are means±SD in activity units/ml.
Copper is another important cofactor for metalloenzymes, and is a second necessary cofactor for superoxide dismutase.

[3] = one dose of zinc, blood samples at 0-4 hours, n=12, ANOVA+Tukey p<0.05
Method: FIG. 2. Relative zinc absorption from three different forms of zinc. Subjects (n=12) were given one dose of zinc with blood samples taken at 0, 1, 2, 3, and 4 hours. Erythrocyte (red blood cell) zinc was analyzed for each time point with area under the curve used as a measure of relative absorption. The order of the different forms of zinc was randomly determined for each subject. A washout of at least 2 weeks occurred between testings of the different forms of zinc. Values are means±SD.
Zinc is important in maintaining the health of an eye's retina and is an essential part of more than 100 enzymes involved in digestion, metabolism, reproduction, and wound healing. […] (FIG. 3).

[4] = 60 mg/day zinc for 6 weeks
Method: Plasma zinc (μg/ml) response to zinc supplementation as gluconate (GLUC) or glycinate chelate (CHE). Young adult females were given 60 mg/day zinc for 6 weeks.

COC1=C(OC)C(=O)C(C/C=C(\C)CC/C=C(\C)CC/C=C(\C)CC/C=C(\C)CC/C=C(\C)CC/C=C(\C)CC/C=C(\C)CC/C=C(\C)CC/C=C(\C)CCC=C(C)C)=C(C)C1=O [Coenzyme Q]
serum vitamin C (μg/ml), post-values vs pre-values ([1]; coenzyme Q for 2 weeks, N=12, paired t-test P<0.001): significantly different from pre-values
plasma concentrations of active vitamin C ([1]; well-absorbed form of coenzyme Q, FIG. 1): greatly increase plasma concentrations of active vitamin C

NCC(=O)[O-].NCC(=O)[O-].[Cu+2] [copper glycinate]
plasma extracellular superoxide dismutase activities (activity units/ml) [2]: higher activities of a plasma copper enzyme than copper sulfate
plasma extracellular superoxide dismutase activities (activity units/ml) ([2]; listed as Glycinate): significantly different from sulfate values

NCC(=O)[O-].NCC(=O)[O-].[Zn+2] [zinc glycinate]
relative zinc absorption (erythrocyte zinc area under the curve) [3]: better absorbed than zinc oxide
relative zinc absorption (erythrocyte zinc area under the curve) ([3]; listed as Zinc chelate): differed from the other two groups
plasma zinc (μg/ml), post treatment vs pre-treatment [4]: significantly different from pre-treatment

zinc gluconate [reference compound]
plasma zinc (μg/ml), post treatment vs pre-treatment [4]: statistically significant decrease

Source: patent US20140093489A1, “NUTRITIONAL SUPPLEMENTS FOR EYE HEALTH AND RELATED METHODS” (priority 2012, published 2014)
